Target: T1, human vasopressin V1b receptor (Homo sapiens, UniProt P47901)
T1 construct: expressed in transfected cells; host or cells: CHO-K1 (cell line hV1b_3H2_CHO), membrane preparation
T1 sequence (P47901 1-424): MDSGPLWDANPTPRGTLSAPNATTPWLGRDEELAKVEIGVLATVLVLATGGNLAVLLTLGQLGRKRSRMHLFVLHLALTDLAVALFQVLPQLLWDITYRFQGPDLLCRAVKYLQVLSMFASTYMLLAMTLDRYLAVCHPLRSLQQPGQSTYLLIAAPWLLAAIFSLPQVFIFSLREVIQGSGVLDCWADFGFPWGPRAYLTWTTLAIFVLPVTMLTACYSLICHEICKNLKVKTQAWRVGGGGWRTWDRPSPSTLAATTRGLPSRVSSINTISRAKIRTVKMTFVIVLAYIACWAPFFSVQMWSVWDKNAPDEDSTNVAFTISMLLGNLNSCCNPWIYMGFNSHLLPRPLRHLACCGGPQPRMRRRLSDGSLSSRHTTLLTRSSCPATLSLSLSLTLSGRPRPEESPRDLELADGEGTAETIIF
Assay: Vasopressin V1b receptor binding test
Settings: membranes of CHO-K1 cells with human V1b receptor, displacement of 1.5 nM 3H-AVP; for compounds with more than one stereogenic center the diastereomer with greater affinity
In short: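 Affinity constants (Ki) came from nonlinear regression of triplicate scintillation counts after filtration separated bound from free radioligand. Compounds competed at human V1b membranes for 60 min, room temperature, in pH 7.4 tris/MgCl2/BSA buffer with 2% DMSO; 1 μM AVP defined nonspecific binding.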

Q: For `COc1ccc(CN2CCN(C)CC2)cc1C1(N2CCC[C@H]2c2ncco2)C(=O)N(S(=O)(=O)c2ccc(C#N)cc2)c2ccc(Cl)cc21` (stereo partly drawn) [Example 81, 5-Chloro-1-(4-cyanobenzenesulfonyl)-3-[2-methoxy-5-(4-methylpiperazin-1-ylmethyl)phenyl]-3-((S)-2-oxazol-2-yl-pyrrolidin-1-yl)-1,3-dihydroindol-2-one], which Ki is on record?
A: 10 to 100 nM

Q: How did the Ki turn out when `COc1ccc(CN2CCN(C)CC2)cc1C1(N2CCC[C@H]2c2ncco2)C(=O)N(S(=O)(=O)c2ccc(F)cc2)c2ccc(Cl)cc21` (stereo partly drawn) [Example 82, 5-Chloro-1-(4-fluorobenzenesulfonyl)-3-[2-methoxy-5-(4-methylpiperazin-1-ylmethyl)phenyl]-3-((S)-2-oxazol-2-yl-pyrrolidin-1-yl)-1,3-dihydroindol-2-one] was run?
A: 100 to 1000 nM

Q: For `COc1ccc(CN2CCN(C)CC2)cc1C1(N2CCC[C@H]2c2ncco2)C(=O)N(S(=O)(=O)c2ccccc2)c2ccc(Cl)cc21` (stereo partly drawn) [Example 84, 1-(Benzenesulfonyl)-5-chloro-3-[2-methoxy-5-(4-methylpiperazin-1-ylmethyl)phenyl]-3-((S)-2-oxazol-2-yl-pyrrolidin-1-yl)-1,3-dihydroindol-2-one], which Ki is on record?
A: 100 to 1000 nM

Q: With `CCc1ccc(S(=O)(=O)N2C(=O)C(c3cc(CN4CCN(C)CC4)ccc3OC)(N3CCC[C@H]3c3ncco3)c3cc(Cl)ccc32)cc1` (stereo partly drawn) [Example 85, 5-Chloro-1-(4-ethylbenzenesulfonyl)-3-[2-methoxy-5-(4-methylpiperazin-1-ylmethyl)phenyl]-3-((S)-2-oxazol-2-yl-pyrrolidin-1-yl)-1,3-dihydroindol-2-one] as the molecule, how does the Ki read?
A: 10 to 100 nM

Q: `COc1ccc(S(=O)(=O)N2C(=O)C(c3cc(CN4CCN(C)CC4)ccc3OC)(N3CCC[C@H]3c3ncco3)c3cc(Cl)ccc32)c(OC)c1` (stereo partly drawn) [Example 86, 5-Chloro-1-(2,4-dimethoxybenzenesulfonyl)-3-[2-methoxy-5-(4-methylpiperazin-1-ylmethyl)phenyl]-3-((S)-2-oxazol-2-yl-pyrrolidin-1-yl)-1,3-dihydroindol-2-one] was tested. Which Ki did it give?
A: 10 to 100 nM

Q: How did the Ki turn out when `COc1ccc(S(=O)(=O)N2C(=O)C(c3cc(CN4CCN(C)CC4)ccc3OC)(N3CCC[C@H]3c3ncco3)c3cc(Cl)ccc32)cc1F` (stereo partly drawn) [Example 87, 5-Chloro-1-(3-fluoro-4-methoxybenzenesulfonyl)-3-[2-methoxy-5-(4-methylpiperazin-1-ylmethyl)phenyl]-3-((S)-2-oxazol-2-yl-pyrrolidin-1-yl)-1,3-dihydroindol-2-one] was run?
A: 10 to 100 nM

Q: `CCN1CCN(Cc2ccc(OC)c(C3(N4CCC[C@H]4c4ncco4)C(=O)N(S(=O)(=O)c4ccc(OC)cc4)c4ccc(Cl)cc43)c2)CC1` (stereo partly drawn) [Example 88, 5-Chloro-3-[5-(4-ethylpiperazin-1-ylmethyl)-2-methoxyphenyl]-1-(4-methoxybenzenesulfonyl)-3-((S)-2-oxazol-2-yl-pyrrolidin-1-yl)-1,3-dihydroindol-2-one] was tested. Which Ki did it give?
A: < 10 nM

Q: `COc1ccc(S(=O)(=O)N2C(=O)C(c3cc(CN4CCN(C(C)C)CC4)ccc3OC)(N3CCC[C@H]3c3ncco3)c3cc(Cl)ccc32)cc1` (stereo partly drawn) [Example 89, 5-Chloro-3-[5-(4-isopropylpiperazin-1-ylmethyl)-2-methoxyphenyl]-1-(4-methoxybenzenesulfonyl)-3-((S)-2-oxazol-2-yl-pyrrolidin-1-yl)-1,3-dihydroindol-2-one] was tested. Which Ki did it give?
A: < 10 nM

Q: `COc1ccc(S(=O)(=O)N2C(=O)C(c3cc(CN4CCN(C(C)=O)CC4)ccc3OC)(N3CCC[C@H]3c3ncco3)c3cc(Cl)ccc32)cc1` (stereo partly drawn) [Example 90, 3-[5-(4-Acetylpiperazin-1-ylmethyl)-2-methoxyphenyl]-5-chloro-1-(4-methoxybenzenesulfonyl)-3-((S)-2-oxazol-2-yl-pyrrolidin-1-yl)-1,3-dihydroindol-2-one] was tested. Which Ki did it give?
A: 10 to 100 nM

Q: For `COc1ccc(S(=O)(=O)N2C(=O)C(c3cc(CN4CCCN(C)CC4)ccc3OC)(N3CCC[C@H]3c3ncco3)c3cc(Cl)ccc32)cc1` (stereo partly drawn) [Example 91, 5-Chloro-1-(4-methoxybenzenesulfonyl)-3-[2-methoxy-5-(4-methyl-[1,4]diazepan-1-ylmethyl)phenyl]-3-((S)-2-oxazol-2-yl-pyrrolidin-1-yl)-1,3-dihydroindol-2-one], which Ki is on record?
A: < 10 nM

Q: With `COc1ccc(S(=O)(=O)N2C(=O)C(c3cc(CN4CCN(CCO)CC4)ccc3OC)(N3CCC[C@H]3c3ncco3)c3cc(Cl)ccc32)cc1` (stereo partly drawn) [Example 92, 5-Chloro-3-{5-[4-(2-hydroxyethyl)piperazin-1-ylmethyl]-2-methoxyphenyl}-1-(4-methoxybenzenesulfonyl)-3-((S)-2-oxazol-2-yl-pyrrolidin-1-yl)-1,3-dihydroindol-2-one] as the molecule, how does the Ki read?
A: < 10 nM

Q: With `COc1ccc(S(=O)(=O)N2C(=O)C(c3cc(CNCCO)ccc3OC)(N3CCC[C@H]3c3ncco3)c3ccc(Cl)cc32)cc1` (stereo partly drawn) [Example 93, 6-Chloro-3-{5-[(2-hydroxyethylamino)methyl]-2-methoxyphenyl}-1-(4-methoxybenzenesulfonyl)-3-((S)-2-oxazol-2-yl-pyrrolidin-1-yl)-1,3-dihydroindol-2-one] as the molecule, how does the Ki read?
A: 100 to 1000 nM

Q: `COc1ccc(S(=O)(=O)N2C(=O)C(c3cc(CN4CCN(C(C)C)CC4)ccc3OC)(N3CCC[C@H]3c3ncco3)c3cc(C#N)ccc32)cc1` (stereo partly drawn) [Example 94, 5-Cyano-3-[5-(4-isopropylpiperazin-1-ylmethyl)-2-methoxyphenyl]-1-(4-methoxybenzenesulfonyl)-3-((S)-2-oxazol-2-yl-pyrrolidin-1-yl)-1,3-dihydroindol-2-one] was tested. Which Ki did it give?
A: 10 to 100 nM

Q: How did the Ki turn out when `COc1ccc(S(=O)(=O)N2C(=O)C(c3cc(CN4CCN(C(C)=O)CC4)ccc3OC)(N3CCC[C@H]3c3ncco3)c3cc(C#N)ccc32)cc1` (stereo partly drawn) [Example 95, 5-Cyano-3-[5-(4-acetylpiperazin-1-ylmethyl)-2-methoxyphenyl]-1-(4-methoxybenzenesulfonyl)-3-((S)-2-oxazol-2-yl-pyrrolidin-1-yl)-1,3-dihydroindol-2-one] was run?
A: 10 to 100 nM

Q: How did the Ki turn out when `COc1ccc(S(=O)(=O)N2C(=O)C(c3cc(CN4CCOCC4)ccc3OC)(N3CCC[C@H]3c3ncco3)c3cc(Cl)ccc32)cc1` (stereo partly drawn) [Example 96, 5-Chloro-1-(4-methoxybenzenesulfonyl)-3-(2-methoxy-5-(morpholin-4-ylmethyl)phenyl)-3-((S)-2-oxazol-2-yl-pyrrolidin-1-yl)-1,3-dihydroindol-2-one] was run?
A: 10 to 100 nM

Q: `CNCc1ccc(C2(N3CCC[C@H]3c3ncco3)C(=O)N(S(=O)(=O)c3ccc(OC)cc3)c3ccc(C#N)cc32)c(OC)c1` (stereo partly drawn) [Example 97, 5-Cyano-1-(4-methoxybenzenesulfonyl)-3-(2-methoxy-4-methylaminomethylphenyl)-3-((S)-2-oxazol-2-yl-pyrrolidin-1-yl)-1,3-dihydroindol-2-one] was tested. Which Ki did it give?
A: 10 to 100 nM

Q: `CCNCc1ccc(C2(N3CCC[C@H]3c3ncco3)C(=O)N(S(=O)(=O)c3ccc(OC)cc3)c3ccc(C#N)cc32)c(OC)c1` (stereo partly drawn) [Example 98, 5-Cyano-3-(4-ethylaminomethyl-2-methoxyphenyl)-1-(4-methoxybenzenesulfonyl)-3-((S)-2-oxazol-2-yl-pyrrolidin-1-yl)-1,3-dihydroindol-2-one] was tested. Which Ki did it give?
A: 10 to 100 nM

Q: How did the Ki turn out when `CCCNCc1ccc(C2(N3CCC[C@H]3c3ncco3)C(=O)N(S(=O)(=O)c3ccc(OC)cc3)c3ccc(C#N)cc32)c(OC)c1` (stereo partly drawn) [Example 99, 5-Cyano-1-(4-methoxybenzenesulfonyl)-3-(2-methoxy-4-(propylaminomethyl)phenyl)-3-((S)-2-oxazol-2-yl-pyrrolidin-1-yl)-1,3-dihydroindol-2-one] was run?
A: 10 to 100 nM

Q: How did the Ki turn out when `COc1ccc(S(=O)(=O)N2C(=O)C(c3ccc(CNC(C)C)cc3OC)(N3CCC[C@H]3c3ncco3)c3cc(C#N)ccc32)cc1` (stereo partly drawn) [Example 100, 5-Cyano-3-[4-(isopropylaminomethyl)-2-methoxyphenyl]-1-(4-methoxybenzenesulfonyl)-3-((S)-2-oxazol-2-yl-pyrrolidin-1-yl)-1,3-dihydroindol-2-one] was run?
A: 10 to 100 nM

Q: `COc1ccc(S(=O)(=O)N2C(=O)C(c3ccc(CN4CCCC4)cc3OC)(N3CCC[C@H]3c3ncco3)c3cc(C#N)ccc32)cc1` (stereo partly drawn) [Example 101, 5-Cyano-1-(4-methoxybenzenesulfonyl)-3-(2-methoxy-4-(pyrrolidin-1-ylmethyl)phenyl)-3-((S)-2-oxazol-2-yl-pyrrolidin-1-yl)-1,3-dihydroindol-2-one] was tested. Which Ki did it give?
A: 10 to 100 nM

Q: `COc1ccc(S(=O)(=O)N2C(=O)C(c3cc(CN(C)C)ccc3OC)(N3C[C@H](O)C[C@H]3c3ncco3)c3cc(Cl)ccc32)cc1` (stereo partly drawn) [Example 102, 5-Chloro-3-(5-dimethylaminomethyl-2-methoxyphenyl)-3-((2S,4R)-4-hydroxy-2-oxazol-2-yl-pyrrolidin-1-yl)-1-(4-methoxybenzenesulfonyl)-1,3-dihydroindol-2-one] was tested. Which Ki did it give?
A: < 10 nM

Q: With `COc1ccc(S(=O)(=O)N2C(=O)C(c3cc(CN4CCN(C)CC4)ccc3OC)(N3C[C@H](O)C[C@H]3c3ncco3)c3cc(Cl)ccc32)cc1` (stereo partly drawn) [Example 103, 5-Chloro-3-((2S,4R)-4-hydroxy-2-oxazol-2-yl-pyrrolidin-1-yl)-1-(4-methoxybenzenesulfonyl)-3-[2-methoxy-5-(4-methylpiperazin-1-ylmethyl)phenyl]-1,3-dihydroindol-2-one] as the molecule, how does the Ki read?
A: < 10 nM
